From US20230048888A1, “USE OF TRIAZOLOTRIAZINE DERIVATIVE IN TREATMENT OF DISEASES” (ZHEJIANG VIMGREEN PHARMACEUTICALS, LTD., priority 2019, published 2023)
Read-outs that look alike come from different tables or passages of the source.

Legend:
[1] = Pharmacokinetics of test compounds in SD rats (15.2; IV and PO, mixed administration); type: in vivo; conditions: for AUC(0-t) / Cmax / half-life: male, Sprague-Dawley, rat, plasma; for half-life: read-out: T½ (converted)
Description: Administration dose: the compounds in this group were all administered in a mixed way, with 6 compounds in each group for mixed PO administration.
Blood was collected based on the blood collection points in the test protocol. 50 μL of plasma sample was added with acetonitrile (containing 5 ng/mL Verapamil) being 3 folds of the volume thereof; the resulting mixture was vortexed for 30 s, and then centrifuged for 15 min at 15,000 rpm at 4° C.; and 10μ L of supernatant was taken for LC-MS/MS analysis.
For each compound, 3 male SD rats weighing 200-220 g were fasted for one night before dosage, but had access to water.
Orally intragastric administration: before intragastric administration and at 0.083 h, 0.25 h, 0.5 h, 1 h, 2 h, 4 h, 8 h and 24 h after administration (for Compounds 40, 27, 40 and 47), or at 0.25 h, 0.5 h, 1 h, 4 h, 6 h and 8 h after administration (for Compounds 44 and 48), orbital blood was collected and put in a test tube that was treated with heparin sodium, and after centrifugation, the supernatant plasma was collected for LC-MS/MS analysis.
The plasma samples were processed according to the method for “sample treatment” and then analyzed by LC-MS/MS, accompanied with the standard curve and quality control samples. At a time point when the upper limit of quantification was exceeded, the samples were diluted 10 or 100 folds for analysis. All measured data were collected and processed by Analyst 1.6.3 software, and the data were calculated and processed with Microsoft Excel. With DAS 3.2.8 software, the pharmacokinetic parameters were calculated by the statistical moment method. The pharmacokinetic parameters mainly include Tmax, t1/2, Cmax, AUC(0-t), etc.

human ADORA2A = molecular target: T1, human ADORA2A (Homo sapiens, UniProt P29274); assay: Calcium flow test (FLIPR), ADORA2A stably transfected CHO; type: cell-based; conditions: Table 9
T1 construct: host or cells: CHO
Description: (§1) The binding of the A2AR agonist to A2AR could activate a downstream pathway to increase the intracellular calcium ion concentration. The antagonist would competitively occupy the binding site where the agonist binds to A2AR, thereby interrupting the intracellular signal transduction and leading to a change in the intracellular calcium ion concentration. By detecting the strength of the intracellular calcium ion signal, the antagonistic activities of the compound on human ADORA1, ADORA2A, ADORA2B and ADORA3 adenosine receptors were determined. […]
(§2) 7) The FLIPR instrument software was operated; following a set program, 10 μL of experimental buffer salt solution was added to the cell plate; and fluorescence signals were read. Then, 10 μL of the reference compound of agonist at a predetermined concentration was added to the cell plate, and the fluorescence signals were read. After reading, data was exported by means of “Max-Min” and “Read 91 to Maximum allowed” in the software, the EC80 of each cell line was calculated, and an agonist with a concentration of 6×EC80 was prepared.
9) The FLIPR instrument software was operated; following a set program, 10 μL of the test compound and 10 μL of the reference compound were added at a predetermined concentration to the cell plate; and the fluorescence signals were read. […]

human ADORA3 = molecular target: T2, human ADORA3 (Homo sapiens, UniProt P0DMS8); assay: Calcium flow test (FLIPR), ADORA3 stably transfected CHO; type: cell-based; conditions: Table 9
T2 construct: host or cells: CHO
T2 sequence (P0DMS8 1-318): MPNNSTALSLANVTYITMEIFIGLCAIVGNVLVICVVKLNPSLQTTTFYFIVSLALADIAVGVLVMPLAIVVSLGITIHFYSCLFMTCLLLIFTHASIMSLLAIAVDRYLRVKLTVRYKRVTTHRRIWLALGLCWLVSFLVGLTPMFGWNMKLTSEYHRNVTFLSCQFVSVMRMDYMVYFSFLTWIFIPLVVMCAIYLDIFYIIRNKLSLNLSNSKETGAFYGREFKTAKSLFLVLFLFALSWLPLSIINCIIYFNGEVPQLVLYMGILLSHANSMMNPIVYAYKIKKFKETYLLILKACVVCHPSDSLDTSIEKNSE
Description: as §1, with “In this experiment, stably transfected cell lines over-expressing adenosine receptor coupled to human Gq were used, and the antagonistic function of Compound 22 was evaluated by testing the changes in intracellular calcium ion concentration. The binding” for “The binding”
as §2
9) The FLIPR instrument software was operated; following a set program, 10 μL of the test compound and 10 μL of the reference compound were added at a predetermined concentration to the cell plate; and the fluorescence signals were read. Then, 10 μL of the reference compound of agonist at a concentration of 6×EC80 was added to the cell plate, and the fluorescence signal were read. For the antagonist detection of the compound, data was exported by means of “Max-Min” and “Read 1 to 90” in the software. […]

T1 sequence (P29274 whole entry): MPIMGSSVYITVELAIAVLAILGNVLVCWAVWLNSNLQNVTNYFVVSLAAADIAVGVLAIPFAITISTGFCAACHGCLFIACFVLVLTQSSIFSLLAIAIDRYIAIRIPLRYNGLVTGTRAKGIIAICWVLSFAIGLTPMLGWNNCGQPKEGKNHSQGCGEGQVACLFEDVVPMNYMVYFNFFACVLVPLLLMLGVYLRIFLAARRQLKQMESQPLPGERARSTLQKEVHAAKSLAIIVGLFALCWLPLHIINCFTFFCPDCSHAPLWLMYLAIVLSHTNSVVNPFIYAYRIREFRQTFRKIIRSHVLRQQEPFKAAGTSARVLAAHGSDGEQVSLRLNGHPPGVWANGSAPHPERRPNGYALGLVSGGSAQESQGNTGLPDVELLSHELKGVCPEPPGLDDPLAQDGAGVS

| SMILES | Cl_F_pred ([1]; SD rats, PO, 10 mg/kg) | F ([1]; SD rats, PO, 10 mg/kg) | AUC(0-t) ([1]; SD rats, PO, 10 mg/kg) | Cmax ([1]; SD rats, PO, 10 mg/kg) | half-life ([1]; SD rats, PO, 10 mg/kg) | IC50 (human ADORA2A) | IC50 (human ADORA3) | half-life ([1]; po, […]) | AUC(0-t) ([1]; SD rats, PO, 2 mg/kg, mixed administration (6 compounds per group)) |
| --- | --- | --- | --- | --- | --- | --- | --- | --- | --- |
| COCCNc1ccc(CCNc2nc(N)n3nc(-c4ccco4)nc3n2)cc1 [Compound 27, 2-(furan-2-yl)-N5-(4-((2-methoxyethyl)amino)phenethyl)-[1,2,4]triazolo[1,5-a][1,3,5]triazine-5,7-diamine] | 139.069 mL/min/kg | 127.5% | 1070 ng·h/mL | 325 ng/mL | 2.42 h | – | – | – | – |
| Nc1nc(NCCc2ccc(NC3COC3)cc2)nc2nc(-c3ccco3)nn12 [Compound 22, 2-(furan-2-yl)-N5-(4-(oxetan-3-ylamino)phenethyl)-[1,2,4]triazolo[1,5-a][1,3,5]triazine-5,7-diamine] | – | – | – | – | – | 0.35 ± 0.07 nM | 931 ± 54.1 nM | – | – |
| Cn1nnc(-c2ccc(CCNc3nc(N)n4nc(-c5ccco5)nc4n3)cc2)n1 [Compound 40, N5-(4-(2-methyl-2H-tetrazol-5-yl)phenethyl)-2-(furan-2-yl)-[1,2,4]triazolo[1,5-a][1,3,5]triazine-5,7-diamine] | 22.9228 mL/min/kg | 46.97% | 6600 ng·h/mL | 2440 ng/mL | 2.44 h | 1.17 ± 0.62 nM | 6300 ± 2890 nM | 0.23 h | 2360 ng·h/mL |
